In patent publication US20200308162A1, “DRUGS AND COMPOSITIONS FOR OCULAR DELIVERY” (Graybug Vision, Inc., priority 2017, published 2020):

Assays:
[1] = Degradation of ECA prodrugs heated at 60° C. in water/acetonitrile (HPLC-MS); assay type: physicochemical; details: 60° C. in 50/50 water (0.1% FA)/acetonitrile (0.1% FA)
Description: Prodrugs of ECA were challenged by heating at 60° C. in 50/50 water (0.1% FA)/acetonitrile (0.1% FA), and the degradants were separated using a reverse phase HPLC equipped with a C-18 bonded stationary phase. The identification of various peaks was accomplished by mass spectrometry detector and retention time comparison with available standards.
Chromatographic separation of ethacrynic acid parent compounds and their PLA conjugated derivatives was achieved using an Agilent 1260 Infinity II LCMS equipped with an Waters Symmetry C18 column (5 μm, 4.6 mm×150 mm) as the stationary phase and acetonitrile/water as the mobile phase. The gradient separation method is outlined in Table 4. The analysis was performed at an injection volume of 10 μL, a flow rate of 1.2 mL/min and a detection wavelength of 230 nm at 25° C. Retention times for ethacrynic acid and PLA-conjugated compounds are illustrated in Table 5.
Table 6 illustrates the calculated mass and structure of all the individual intermediates and the parent compound. Calculated mass ions were extracted using a MS G6135B detector with positive and negative polarity acquisition between mass 100-1000, fragmentation at 250, gain at 1, threshold of 150, and speed of 2080 u/sec. Extracted ions and polarity for individual mass spectometry peak identification is outlined in Table 7.

[2] = Mean size of ethacrynic acid prodrug encapsulated microparticles; assay type: physicochemical
[3] = Drug release kinetics of Timolol and ethacrynic acid prodrugs from polymer microparticles; assay type: physicochemical
Description: The effect of polymer composition including monomer ratio and molecular weight, polymer end-groups (ester or acid), inherent viscosity and polymer blend ratios on particle degradation and drug release kinetics of Timolol-O-ethyl fumurate (17) was evaluated and is illustrated in FIG. 5. The rate of particle degradation was slowed and drug release was prolonged when the mole % of DL-lactide over glycolide was increased. By incorporating polymers with different monomer ratios (i.e., PLA, PLGA8515, PLGA525, PLGA5050 wherein 8515 refers to 85% DL-lactide and 15% glycolide) into the particles, it is possible to fine-tune the degradation rate of the particles to achieve a linear rate of drug release from the particles to minimize burst or lag and to extend the duration of release. […] The 78/22(PLA 5A/PLGA8515 4.5A) and 65/20/15(PLA 4A/PLGA6515 4.5A/PLGA5050 4A) polymer blends generated ideal particles for a 3-6 month linear release formulation. […] The rate of release was independent of the salt form. […] Thus, release rate is not solely dictated by the physicochemical properties of the linker, but rather must be attributed to a combination of parameters that may include linker type and site of linker conjugation.
FIG. 6 illustrates the release kinetics of ethacrynic acid-PLA(n=4)-ethyl ester (1) from PLGA microparticles. The drug was released over a period of approximately 66 days.
FIG. 8 and FIG. 9 illustrate the release kinetics of ethacrynic acid-PLA(n=4)-ethyl ester (1) and ethacrynic acid-PLA(n=6)-ethyl ester (25), respectively, from PLGA microparticles. The drug was released from a number of formulations over a period of greater than 90 days. […] Particles generated with 1% PVA in PBS was compared against particles generated in 1% PVA in water (FIG. 10).
Based upon these initial formulation screens, the formulation comprising of 1% mPEG-PLGA and 99% PLA100 4.5A:PLGA8515 5A (77:22) was selected as the lead formulation for ECA-PLA(n=4) (1) and ECA-PLA(n=6) (25) prodrugs. The particles were prepared in 1% PVA in water. The release profiles for the lead ECA-PLA(n=4) (1) and ECA-PLA(=6) (25) particle formulations are illustrated in FIG. 11.

[4] = Drug solubility in water, DMSO and DCM (HPLC of filtered supernatant); details: thermodynamic from solid
Description: For each test, approximately 5-10 mg was transferred to a 10 mL glass vial. Aqueous or organic solvent was added to each vial to achieve an overall concentration of 50 mg/mL. After vortexing aggressively for 2-3 minutes and sonicating in a bath sonicator for 5 minutes, undissolved drug was spun down at 1200 rpm for 5 minutes to generate a pellet. The supernatant was collected and filtered through a 0.2 μm nylon syringe filter into HPLC vials for drug content analysis. Drug concentration was determined by comparing against a standard calibration curve.

[5] = Percent drug loading of ethacrynic acid prodrug microparticles (RP-HPLC); assay type: physicochemical
Description: To determine the percent drug loading (% DL), 10 mg of particles was weighed into a glass scintillation vial and dissolved with 10 mL of MeCN:water (1:1, v/v). The solution was filtered through a 0.2 μm nylon syringe filter and the drug content was determined by RP-HPLC referenced against a standard calibration curve.

[6] = In vitro stability of ethacrynic acid prodrugs at 37° C.; assay type: physicochemical; details: 37° C.
Excerpt: As evidenced, both prodrugs of ethacrynic acid degrade steadily over the 6 day period. As the ester linkages are hydrolyzed, the parent compound is generated in a linear rate. The rate of degradation to the parent compound is faster for the shorter […] in comparison to the degradation kinetics for ethacrynic acid-PLA(n=4)-ethyl ester (1).
Approximately 94% of the ECA-PLA(n=4) prodrug (1) has been converted to free ECA by day 6, in comparison to only 56% for ECA-PLA(n=6) (25). Also, by day 6, all the initial prodrug has been degraded into intermediates and free drug respectively.

[7] = carboxylic acid; cited from earlier work
rabbit eyes = details: topical eye drops, cited from earlier work
monkey eyes = details: topical eye drops, cited from earlier work
glaucomatous monkey eyes = details: ointment, highest concentration of 2.5% ECA, four glaucomatous monkey eyes; cited from earlier work
[8] = PLA100 4.5A + 1% PEG-PLGA5050, polymer 200 mg/mL
[9] = PLA100 4.5A + PLGA7525 6E (69:30) + 1% PEG-PLGA5050, polymer 200 mg/mL
[10] = PLA100 4.5A + PLGA8515 5A (77:22) + 1% PEG-PLGA5050, polymer 200 mg/mL
[11] = PLA100 4.5A + PLGA8515 5A + PLGA5050 4A (64:20:15) + 1% PEG-PLGA5050, polymer 200 mg/mL
[12] = PLA100 4.5A + PLGA8515 5A + PLGA5050 4A (64:30:5) + 1% PEG-PLGA5050, polymer 200 mg/mL
[13] = PLGA7525 4A + 1% PEG-PLGA5050, polymer 200 mg/mL

C=C(CC)C(=O)c1ccc(OCC(=O)O[C@@H](C)C(=O)O[C@@H](C)C(=O)O[C@@H](C)C(=O)O[C@@H](C)C(=O)O[C@@H](C)C(=O)O[C@@H](C)C(=O)OCC)c(Cl)c1Cl [Compound 25, (S)-2-((S)-2-[(S)-2-((S)-2-(2-[2,3-Dichloro-4-(2-methylene-butyryl)-phenoxy]-acetoxy)-propionyloxy)-propionyloxy]-propionyloxy)-propionic acid (S)-1-((S)-1-ethoxycarbonyl-ethoxycarbonyl)-ethyl ester]
hydrolysis products [1]: hydrolyze into five intermediates | Mean size [2, 8]: 27.62 um | Mean size [2, 9]: 26.95 um | Mean size [2, 10]: 27.88 um | Mean size [2, 11]: 26.59 um | Mean size [2, 12]: 26.27 um | Mean size [2, 13]: 26.19 um | in vitro release profile of lead microparticle formulation ([3]; 1% mPEG-PLGA and 99% PLA100 4.5A:PLGA8515 5A (77:22), prepared in 1% PVA in water, FIG. 11): much more linear release profile | rate of drug release as a function of drug loading ([3]; microparticles with 13.5, 18.1, 27.4 and 38.2 % DL, FIG. 4): rate of drug release increased with increasing drug loading | solubility ([4]; DMSO, organic solvent or mixture): > 50 mg/mL | solubility ([4]; water): < 0.1 mg/mL | % Drug loading [5, 8]: 13.83% | % Drug loading [5, 9]: 11.56% | % Drug loading [5, 10]: 12.29% | % Drug loading [5, 11]: 14.22% | % Drug loading [5, 12]: 13.53% | % Drug loading [5, 13]: 12.43% | % Drug loading ([5]; theoretical loading 15): 13.5% | % Encapsulation Efficiency ([5]; theoretical loading 15): 90.0% | % Drug loading ([5]; theoretical loading 20): 18.1% | % Encapsulation Efficiency ([5]; theoretical loading 20): 90.5% | % Drug loading ([5]; theoretical loading 30): 27.4% | % Encapsulation Efficiency ([5]; theoretical loading 30): 91.3% | % Drug loading ([5]; theoretical loading 40): 38.2% | % Encapsulation Efficiency ([5]; theoretical loading 40): 95.5% | rate of degradation of the prodrug ([6]; 6 days): degraded slightly slower | prodrug converted to free ECA by day 6 ([6]; day 6): 56%

C=C(CC)C(=O)c1ccc(OCC(=O)O)c(Cl)c1Cl [ECA, ethacrynic acid]
pka [7]: approximately 2.8 | ocular adverse effects (rabbit eyes; especially at higher doses): corneal edema and moderate diffuse superficial corneal erosion | effect on IOP (rabbit eyes; rabbit eyes): effective in decreasing IOP | ocular adverse effects (monkey eyes; especially at higher doses): corneal edema and moderate diffuse superficial corneal erosion | effect on IOP (monkey eyes; monkey eyes): effective in decreasing IOP | ocular adverse effects (glaucomatous monkey eyes): mild eyelid edema, conjunctival hyperemia, and discharge
